≈ marks a conversion by molar mass, not a printed value.
What was measured:
Assay type in all cases: functional
[1] = system: P388; test: Cytotoxicity against mouse P388 cells; settings: read-out: ED50 (the source's name)
[2] = system: KB; test: Cytotoxicity against human KB cells; settings: read-out: ED50 (the source's name)
[3] = system: P388; test: Cytotoxicity against mouse P388 cells in in vivo based assay at 0.78 mg/kg relative to control
[4] = system: P388; test: Cytotoxicity against mouse P388 cells in in vivo based assay at 1.56 mg/kg relative to control

CC[C@@]1(O)C(=O)OCc2c1cc1n(c2=O)Cc2cc3c(OC)cccc3nc2-1
EC50 [1]: 0.53 µg/mL (≈ 1.4 µM)
EC50 [2]: 0.17 µg/mL (≈ 0.449 µM)

CC[C@@]1(O)C(=O)OCc2c1cc1n(c2=O)Cc2cc3ccccc3nc2-1 [CAMPTOTHECIN]
T/C [3]: 175%
T/C [4]: 181%
